According to ChEMBL document CHEMBL1201862, “PubChem BioAssay data set” (2004):
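48-hour exposure; five concentrations; linearly interpolated endpoints. The concentration for 50% growth inhibition is given as GI50.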 Active and inactive are the calls of the source. No stated cut-off is given here; in the data, active = GI50 up to about 1.1 µM and inactive = higher.

Key:
Assay in all cases: DTP human tumour cell line panel, 48 h
CAKI-1 = test system: CAKI-1
MOLT-4 = test system: MOLT-4
MDA-N = test system: MDA-N
CCRF-CEM = test system: CCRF-CEM
SK-OV-3 = test system: SK-OV-3
OVCAR-4 = test system: OVCAR-4
RPMI-8226 = test system: RPMI-8226
SNB-19 = test system: SNB-19
SF-539 = test system: SF-539
A498 = test system: A498
HOP-62 = test system: HOP-62
U-251 = test system: U-251
786-0 = test system: 786-0
HCT-116 = test system: HCT-116
SK-MEL-2 = test system: SK-MEL-2
K562 = test system: K562
SK-MEL-5 = test system: SK-MEL-5
MDA-MB-435 = test system: MDA-MB-435
NCI-H226 = test system: NCI-H226
RXF 393 = test system: RXF 393

Measured: GI50

Cc1ccc(N(C(=O)Nc2ccccc2)C2=NCC(C)S2)cc1C (configuration not stated)
inactive: CAKI-1 > 10 µM | MOLT-4 > 10 µM | MDA-N 17.6 µM | CCRF-CEM 19.6 µM | SK-OV-3 39.6 µM | OVCAR-4 28.9 µM | RPMI-8226 20 µM | SNB-19 33.3 µM | SF-539 20.4 µM | A498 14 µM | HOP-62 53.3 µM | U-251 19.3 µM | 786-0 20.4 µM | HCT-116 16.4 µM | SK-MEL-2 17.4 µM | K562 42.7 µM | SK-MEL-5 17 µM

CCOC(=O)n1[nH]c(=O)n(-c2ccccc2)c1=O
inactive: CAKI-1 > 100 µM | MOLT-4 > 100 µM | MDA-N > 100 µM | CCRF-CEM > 100 µM | SK-OV-3 > 100 µM | OVCAR-4 > 100 µM | RPMI-8226 > 100 µM | MDA-MB-435 > 100 µM | SNB-19 > 100 µM | HOP-62 > 100 µM | U-251 > 100 µM | 786-0 > 100 µM | HCT-116 > 100 µM | SK-MEL-2 > 100 µM | NCI-H226 > 100 µM | RXF 393 > 100 µM | K562 > 100 µM | SK-MEL-5 > 100 µM

CC(=O)O[C@H]1CC[C@@]2(C)C(=CC[C@H]3[C@@H]4C/C(=C\c5ccc(N(C)C)cc5)[C@H](OC(C)=O)[C@@]4(C)CC[C@@H]32)C1
inactive: MOLT-4 5.98 µM | MDA-N 13.5 µM | SK-OV-3 43.4 µM | OVCAR-4 14.7 µM | RPMI-8226 4.89 µM | SNB-19 13 µM | SF-539 10.7 µM | A498 18.9 µM | HOP-62 14.1 µM | U-251 6.71 µM | 786-0 4.36 µM | HCT-116 6.37 µM | SK-MEL-2 8.53 µM | NCI-H226 12.1 µM | RXF 393 9.91 µM | K562 6.59 µM | SK-MEL-5 12.5 µM

O=c1c(Sc2c(SCSc3cnc4ccccc4c3Sc3c[nH]c4ccccc4c3=O)cnc3ccccc23)c[nH]c2ccccc12
inactive: CAKI-1 > 100 µM | MOLT-4 > 100 µM | MDA-N > 100 µM | CCRF-CEM 12.7 µM | OVCAR-4 96.6 µM | RPMI-8226 14.5 µM | MDA-MB-435 31.1 µM | SNB-19 46.6 µM | SF-539 > 100 µM | HOP-62 94.2 µM | U-251 25.5 µM | 786-0 > 100 µM | HCT-116 > 100 µM | SK-MEL-2 > 10 µM | SK-MEL-5 39.6 µM

CC(=O)Nc1ccccc1NC1CC(C)N(c2ccccc2)N1C(C)=O (configuration not stated)
inactive: CAKI-1 > 10 µM | MOLT-4 > 10 µM | MDA-N > 10 µM | CCRF-CEM > 10 µM | SK-OV-3 > 10 µM | OVCAR-4 > 10 µM | RPMI-8226 > 10 µM | MDA-MB-435 > 10 µM | HOP-62 > 10 µM | 786-0 > 10 µM | RXF 393 > 10 µM | K562 > 10 µM | SK-MEL-5 > 10 µM

Clc1cc2ncn(C3CCCO3)c2cc1Cl (configuration not stated)
inactive: CAKI-1 58.1 µM | MOLT-4 54 µM | MDA-N > 100 µM | CCRF-CEM > 100 µM | SK-OV-3 > 100 µM | OVCAR-4 > 100 µM | RPMI-8226 88.9 µM | MDA-MB-435 > 100 µM | SNB-19 > 100 µM | SF-539 > 100 µM | HOP-62 > 100 µM | U-251 69.7 µM | 786-0 > 100 µM | HCT-116 78.5 µM | SK-MEL-2 > 100 µM | NCI-H226 54.1 µM | RXF 393 81.3 µM | K562 96.2 µM | SK-MEL-5 43.3 µM

Cn1cc(NC(=O)Nc2cc(C(=O)Nc3cc(C(=O)Nc4ccc(S(=O)(=O)O)c5cc(S(=O)(=O)O)ccc45)n(C)c3)n(C)c2)cc1C(=O)Nc1cc(C(=O)Nc2ccc(S(=O)(=O)O)c3cc(S(=O)(=O)O)ccc23)n(C)c1
inactive: MOLT-4 > 100 µM | MDA-N > 100 µM | CCRF-CEM > 100 µM | SK-OV-3 > 100 µM | OVCAR-4 > 100 µM | RPMI-8226 > 100 µM | MDA-MB-435 > 100 µM | SNB-19 > 100 µM | SF-539 > 100 µM | HOP-62 > 100 µM | U-251 > 100 µM | 786-0 > 100 µM | HCT-116 > 100 µM | NCI-H226 > 100 µM | RXF 393 > 100 µM | K562 > 100 µM | SK-MEL-5 > 100 µM

O=C(CN1CCCC1)Nc1ccc2sc3ccccc3c(=O)c2n1
inactive: CAKI-1 18 µM | MOLT-4 1.91 µM | MDA-N 20.8 µM | CCRF-CEM 10.5 µM | SK-OV-3 20.7 µM | OVCAR-4 34.6 µM | RPMI-8226 21.3 µM | MDA-MB-435 14.7 µM | SNB-19 32.7 µM | SF-539 17.1 µM | HOP-62 16.9 µM | U-251 18.7 µM | 786-0 14.9 µM | HCT-116 13.9 µM | SK-MEL-2 21.1 µM | K562 6.82 µM | SK-MEL-5 16.5 µM

COC(=O)[C@H](Cc1ccccc1)NP(=O)(OCCC#N)OCC1OC(n2cc(C)c(=O)[nH]c2=O)CC1N=[N+]=[N-] (some centres not stated)
inactive: CAKI-1 > 100 µM | MOLT-4 > 100 µM | MDA-N > 100 µM | CCRF-CEM > 100 µM | SK-OV-3 > 100 µM | OVCAR-4 > 100 µM | RPMI-8226 > 100 µM | MDA-MB-435 > 100 µM | SNB-19 > 100 µM | HOP-62 > 100 µM | U-251 > 100 µM | 786-0 > 100 µM | HCT-116 > 100 µM | SK-MEL-2 > 100 µM | NCI-H226 > 100 µM | RXF 393 > 100 µM | K562 > 100 µM | SK-MEL-5 > 100 µM

CN1CC2CC(C1)c1cccc(=O)n1C2 (configuration not stated)
inactive: CAKI-1 > 100 µM | MDA-N > 100 µM | SK-OV-3 > 100 µM | OVCAR-4 > 100 µM | MDA-MB-435 > 100 µM | SNB-19 > 100 µM | HOP-62 > 100 µM | U-251 > 100 µM | 786-0 > 100 µM | HCT-116 > 100 µM | SK-MEL-2 > 100 µM | RXF 393 > 100 µM | SK-MEL-5 > 100 µM

O=C1CSC(=S)N1 [RHODANINE]
inactive: CAKI-1 > 100 µM | MOLT-4 > 100 µM | MDA-N > 100 µM | CCRF-CEM > 100 µM | RPMI-8226 > 100 µM | SNB-19 > 100 µM | SF-539 > 100 µM | HOP-62 > 100 µM | U-251 > 100 µM | 786-0 > 100 µM | HCT-116 > 100 µM | SK-MEL-2 > 100 µM | NCI-H226 > 100 µM | K562 > 100 µM | SK-MEL-5 > 100 µM

Cc1cn([C@H]2C=C[C@@H](CO)O2)c(=O)[nH]c1=O [STAVUDINE]
inactive: CAKI-1 307 µM | MOLT-4 > 1000 µM | MDA-N > 1000 µM | CCRF-CEM 469 µM | SK-OV-3 > 1000 µM | OVCAR-4 > 1000 µM | RPMI-8226 466 µM | MDA-MB-435 > 1000 µM | SNB-19 > 1000 µM | SF-539 881 µM | HOP-62 > 1000 µM | U-251 > 1000 µM | 786-0 652 µM | HCT-116 > 1000 µM | SK-MEL-2 > 1000 µM | NCI-H226 > 1000 µM | K562 > 1000 µM | SK-MEL-5 > 1000 µM
